Experimental data from US20180028982A1, “CONTAINER WITH BIOFILM FORMATION-INHIBITING MICROORGANISMS IMMOBILIZED THEREIN AND MEMBRANE WATER TREATMENT APPARATUS USING THE SAME” (SNU R&DB FOUNDATION, priority 2010, published 2018).

Tested on: AI-2 quorum sensing mechanism
Assay: Inhibition of AI-2 quorum sensing, bioluminescence of Vibrio harveyi BB170 after reaction with Vibrio harveyi BB152 samples
Type: cell-based
Settings: farnesol 800 μM on Vibrio harveyi BB152, reaction for 90 minutes, versus no farnesol (Control)
Excerpt: The effect of inhibition of quorum sensing for certain microorganisms (bacteria) for water treatment by farnesol secreted by the biofilm formation-inhibiting microorganisms, i.e., Candida albicans is thought to be attributed to the inhibition of quorum sensing mechanism using AI-2 signal molecules, which was indirectly assessed by means of Vibrio harveyi BB152, a bacteria producing only AI-2, and Vibrio harveyi BB170, bacteria allowing bioluminescence by specifically accepting only AI-2. Particularly, Vibrio harveyi BB152 producing only AI-2 signal molecules was inoculated in an AB medium (Autoinducer Bioassay medium, Tega et al., 2011) and cultivated to a certain degree of optical density (O.D.600) of 0.1-0.3. Farnesol was injected to attain final concentration of 800 μM (and no farnesol was injected for its comparison), each sample was taken after reaction for 90 minutes, and the each sample was reacted with Vibrio harveyi BB170 to measure bioluminescence. As a result, the bioluminescence of Vibrio harveyi BB170 was decreased by about 42 percents for the case of […] (designated as “Control”) when compared to the case of injecting the farnesol (see FIG. 18).

With CC(C)=CCCC(C)=CCCC(C)=CCO [Farnesol, farnesol] the “decrease of bioluminescence of Vibrio harveyi BB170” value was “about 42 percents”.
